Like-named read-outs stand apart in the source and are kept apart here.

As a reminder, the IC50 is the concentration that inhibits the measured activity by half. The low end stands for higher potency, the high end for lower potency.

The test system of one test is OVCAR-3 cells. In words: OVCAR-3 cell proliferation (Cell Titer-Glo, 10 days). The class given is cell-based, human. A digest of the protocol: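 IC50 was fitted by nonlinear regression of percent inhibition versus the 0.1% DMSO control. Luminescence was read with Cell Titer-Glo after 10 days of co-culture of logarithmic-phase cells (400/well) with compound at 0.12 nM–10 μM final, in medium with 20% fetal bovine serum and 0.01 mg/mL insulin.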
For orientation: In ATP-based viability assays light output follows the ATP content of the culture.

Another test deals with KIF18A (Homo sapiens (Human), UniProt Q8NI77). Briefly: KIF18A ATPase activity under tubulin stimulation (ADP-Glo assay). In kind it is biochemical. The following applies: KIF18A 30 nM, ATP 150 μM, pig microtubules. A general note: ADP-Glo first removes unused ATP, then detects ADP through luciferase.
For the next test, the system named is HCC1954 cells. Briefly: HCC1954 cell proliferation (Cell Titer-Glo, 6 days). In kind it is cell-based. The following applies: KIF18A-sensitive tumor cells. The protocol: (§1) The inhibitory effect on the KIF18A target by the compounds of the present disclosure was evaluated by testing the inhibitory effect on proliferation of HCC1954 and HCC1395 cells by the compounds of the present disclosure.
(§2) HCC1954 (ATCC, CRL-2388) and HCC1395 (ATCC, CRL-2324) cells were cultured separately in RPMI-1640 complete medium (Gibco, A1049101) containing 20% fetal bovine serum (Gibco, 10099141C), 100 U penicillin, and 100 μg/mL streptomycin (Gibco, 15140-122). The Promega kit Cell Titer-Glo (Promega: G7572) was used in this method for test. • 1. HCC1954 (KIF18A-sensitive tumor cells) and HCC1395 (KIF18A-insensitive tumor cells) were cultured separately in T75 cell culture flasks (Corning, 430641), and the medium was placed in a 37° C., 5% CO2 incubator. • 2. When the cell density reached 70% to 80% (about 2 to 3 times per week), cells are passaged with trypsin (0.25% EDTA). • 3. The cell culture flask was taken out and the cells were separated by adding 2 mL of trypsin (0.25% EDTA source) for 5 minutes. • 4. Digestion was stopped by adding 8 mL of RPM1-1640 medium and the cell suspension was transferred to a centrifuge tube and centrifuged at 1000 rpm for 5 minutes. • 5. The cells were resuspended with 5 mL of RPMI-1640 medium. Cell density was adjusted to 5×10^3/mL (HCC1954), and 2.5×10^4/mL (HCC1395), respectively. • 6. 40 μL of cell solution was added to the 384-well plate (Corning, 3765). • 7. The 384-well plate was centrifuged at 1000 rpm for 1 minute. • 8. The cells were cultured overnight in a 37° C., 5% CO2 incubator. • 9. The next day, 40 nL of compound solution was added to the 384-well plate using Echo650. The plate was then placed in a 37° C., 5% CO2 incubator for 6 days. • 10. After 6 days, 20 μL of Cell-Titer-Glo (Promega, G7572) reagent was added per well. • 11. Luminescence values were measured using the EnVision Xcite Multilabel Reader (PerkinElmer, 2105-0020).
(§3) The percentage of inhibition of cell proliferation by the test compound at each concentration was calculated by comparing with the values of the control group (0.1% DMSO). The IC50 values of the compounds were obtained by concentration-inhibition rate nonlinear regression analysis of the test compounds using GraphPad Prism 9.

A further test relates to HCC1395 cells. In words: HCC1395 cell proliferation (Cell Titer-Glo, 6 days). The class given is cell-based. To be noted: KIF18A-insensitive tumor cells. How it is done: as §1, §2, §3
The subject of a further test is HT-29 cells. Briefly: HT-29 cell proliferation (Cell Titer-Glo, 6 days). The class given is cell-based. The following applies: Homo sapiens, HT-29, 144 h. The protocol: The inhibitory effect on the KIF18A target by the compounds of the present disclosure was evaluated by testing the inhibitory effect on proliferation of HT-29 cells by the compounds of the present disclosure.
HT-29 (ATCC, HTB-38) cells were cultured in McCoy's 5a complete medium (Gibco, 12330-031) containing 10% fetal bovine serum (Gibco, 10099-141C), 100 U penicillin and […] streptomycin (Gibco, 15140-122). The Promega kit Cell Titer-Glo (Promega: G7572) was used in this method for test. • 1. HT-29 cells were cultured in T75 cell flasks (Corning, 430641) and the medium was placed in a 37° C., 5% CO2 incubator. Cells were passaged when reaching a cell density of 70%-80%, approximately twice per week. • 2. To perform the experiment, the test compounds were dissolved in DMSO to prepare a 10 mM stock solution, and the test compounds were added to the 384-well cell test plate (Corning, 3765) at the predetermined concentration using ECHO. • 3. The cell culture flask was taken out, the medium was removed, and the cells were rinsed with PBS. Then 2 mL of trypsin (with 0.25% EDTA) was added, and the flask was placed in the incubator for digestion for 4 minutes. • 4. Digestion was stopped by adding 4 mL of complete medium and the cell suspension was transferred to a centrifuge tube and centrifuged at 1000 rpm for 4 minutes. • 5. The cells were resuspended in 6 mL of complete medium, followed by cell counting. The cell density was adjusted to 4,170 cells/mL, and the cells were added to a 384-well plate at 60 μL/well. • 6. The 384-well plate was centrifuged at 500 rpm for 1 minute, and then placed in a 37° C., 5% CO2 incubator for 6 days of cultivation. • 7. Six days later, the cell culture plate was equilibrated for 10 minutes at room temperature, 25 μL of Cell Titer-Glo was added to each well, and the mixture was shaken and mixed well and let stand for 5 minutes. The luminescence values for samples in various wells were read using a microplate reader in Luminescence mode.
The percentage of inhibition of cell proliferation by the test compound at each concentration was calculated by comparing with the values of the control group (0.3% DMSO). The IC50 values of the compounds were obtained by concentration-inhibition rate nonlinear regression analysis of the test compounds using GraphPad Prism 9.

The test system of another test is HCT116 cells. In words: HCT116 cell anti-proliferation assay. The class given is cell-based. To be noted: Homo sapiens, HCT-116, 144 h, 6 days, Cell Titer-Glo. How it is done:
HCT116 (ATCC, CCL-247) cells were cultured in McCoy's 5a complete medium (Gibco, 12330-031) containing 10% fetal bovine serum (Gibco, 10099-141C), 100 U penicillin and 100 μg/mL streptomycin (Gibco, 15140-122). The Promega kit Cell Titer-Glo (Promega: G7572) was used in this method for test.
(§4) HCT116 cells were cultured in T75 cell flasks (Corning, 430641) and the cells were placed in a 37° C., 5% CO2 incubator. Cells were passaged when reaching a cell density of 70%-80%, approximately twice per week. To perform the experiment, the test compounds were dissolved in DMSO to prepare a 10 mM stock solution, and the test compounds were added to the 384-well cell test plate (Corning, 3765) at the predetermined concentration (19.5 nM-[…]) using ECHO. HCT1169 cells were digested and 150 cells (60 μL medium) were seeded per well in the test plate. The 384-well plate was then centrifuged at 500 rpm for 1 minute, and then placed in a 37° C., 5% CO2 incubator for 6 days of cultivation. Six days later, the cell culture plate was equilibrated for 10 minutes at room temperature, 25 μL of Cell Titer-Glo was added to each well, and the mixture was shaken and mixed well and let stand for 5 minutes. The luminescence values for samples in various wells were read using a microplate reader in Luminescence mode.
The percentage of inhibition of cell proliferation by the test compound at each concentration was calculated by comparing with the values of the control group (0.2% DMSO). The IC50 values of the compounds were obtained by concentration-inhibition rate nonlinear regression analysis of the test compounds using GraphPad Prism 9.

A further test deals with A2780 cells. In words: A2780 cell anti-proliferation assay. The class given is cell-based. To be noted: Homo sapiens, A2780, 144 h, 6 days, Cell Titer-Glo. How it is done: A2780 (ECACC) cells were cultured in RPMI-1640 complete medium (Gibco, A1049101) containing 10% fetal bovine serum (Gibco, 10099-141C), 100 U penicillin and 100 μg/mL streptomycin (Gibco, 15140-122). The Promega kit Cell Titer-Glo (Promega: G7572) was used in this method for test.
as §4, with “A2780” for “HCT116”, “once every five days.” for “approximately twice per week.”, “A2780” for “HCT1169”, “4000” for “150”
The percentage of inhibition of A2780 cell proliferation by the test compound at each concentration was calculated by comparing with the values of the control group (0.2% DMSO). The IC50 values of the compounds were obtained by concentration-inhibition rate nonlinear regression analysis of the test compounds using GraphPad Prism 9.

Sequence of KIF18A (Q8NI77 whole entry): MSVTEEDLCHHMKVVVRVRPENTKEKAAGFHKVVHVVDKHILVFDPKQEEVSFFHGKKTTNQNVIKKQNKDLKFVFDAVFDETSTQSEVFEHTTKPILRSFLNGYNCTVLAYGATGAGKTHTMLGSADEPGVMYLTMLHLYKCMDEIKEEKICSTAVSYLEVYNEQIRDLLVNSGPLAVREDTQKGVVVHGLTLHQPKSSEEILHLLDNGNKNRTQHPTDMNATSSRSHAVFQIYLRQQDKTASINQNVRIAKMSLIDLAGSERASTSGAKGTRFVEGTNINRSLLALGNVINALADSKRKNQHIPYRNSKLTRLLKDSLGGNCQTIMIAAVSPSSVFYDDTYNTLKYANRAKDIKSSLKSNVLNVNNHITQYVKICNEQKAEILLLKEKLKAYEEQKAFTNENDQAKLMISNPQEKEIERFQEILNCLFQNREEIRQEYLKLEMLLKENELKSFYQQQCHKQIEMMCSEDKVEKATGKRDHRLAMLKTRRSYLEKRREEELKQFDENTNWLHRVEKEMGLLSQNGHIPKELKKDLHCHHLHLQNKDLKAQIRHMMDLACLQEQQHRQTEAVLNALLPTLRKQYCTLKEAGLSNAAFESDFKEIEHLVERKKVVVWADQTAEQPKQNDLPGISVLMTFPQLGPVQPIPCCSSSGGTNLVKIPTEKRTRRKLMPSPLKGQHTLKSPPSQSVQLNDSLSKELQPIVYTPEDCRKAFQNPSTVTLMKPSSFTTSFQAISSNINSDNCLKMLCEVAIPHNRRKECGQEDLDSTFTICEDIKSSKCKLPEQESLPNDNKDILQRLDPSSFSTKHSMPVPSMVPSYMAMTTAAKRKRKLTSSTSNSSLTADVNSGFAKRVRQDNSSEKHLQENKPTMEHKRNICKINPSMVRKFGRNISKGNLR
Sequence of KIF18A (P02550 whole entry partner): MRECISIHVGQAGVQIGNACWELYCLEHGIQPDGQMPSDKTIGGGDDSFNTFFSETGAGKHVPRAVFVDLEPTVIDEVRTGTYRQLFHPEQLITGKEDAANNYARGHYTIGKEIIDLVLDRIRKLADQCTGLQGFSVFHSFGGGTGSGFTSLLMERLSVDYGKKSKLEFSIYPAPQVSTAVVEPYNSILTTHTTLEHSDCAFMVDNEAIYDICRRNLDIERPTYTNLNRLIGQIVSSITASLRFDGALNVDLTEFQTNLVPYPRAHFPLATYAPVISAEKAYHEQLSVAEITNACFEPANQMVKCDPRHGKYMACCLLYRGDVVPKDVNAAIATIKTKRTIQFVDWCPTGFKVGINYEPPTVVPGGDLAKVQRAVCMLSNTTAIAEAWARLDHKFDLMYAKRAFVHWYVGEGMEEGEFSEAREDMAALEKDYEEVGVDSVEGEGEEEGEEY
Sequence of KIF18A (P02554 whole entry partner): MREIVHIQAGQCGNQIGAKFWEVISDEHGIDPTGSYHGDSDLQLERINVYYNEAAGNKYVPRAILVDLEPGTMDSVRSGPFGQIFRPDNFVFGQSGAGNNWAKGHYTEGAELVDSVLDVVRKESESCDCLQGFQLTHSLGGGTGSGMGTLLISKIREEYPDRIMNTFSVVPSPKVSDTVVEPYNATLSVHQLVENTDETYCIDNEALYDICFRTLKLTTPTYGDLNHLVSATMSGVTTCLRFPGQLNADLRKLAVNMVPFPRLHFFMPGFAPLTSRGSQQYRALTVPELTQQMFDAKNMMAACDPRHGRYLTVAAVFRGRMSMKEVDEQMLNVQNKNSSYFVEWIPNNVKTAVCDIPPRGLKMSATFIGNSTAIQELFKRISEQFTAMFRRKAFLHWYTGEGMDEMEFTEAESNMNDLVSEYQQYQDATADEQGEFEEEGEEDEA

On to `CC1OCCn2c1cc1c(NC(=O)c3ccc(NS(=O)(=O)CCO)cc3N3CCC(=C(F)F)CC3)cccc12` (stereo not drawn) [Example 320, 2-(4-(difluoromethylene)piperidin-1-yl)-4-((2-hydroxyethyl)sulfonamido)-N-(1-methyl-3,4-dihydro-1H-[1,4]oxazino[4,3-a]indol-9-yl)benzamide], for which the IC50 in the test on OVCAR-3 cells (Homo sapiens, OVCAR-3, 240 h) is at most 0.05 µM; against KIF18A, 0.05 to 0.5 µM; in the test on HCC1954 cells (Homo sapiens, HCC1954, 144 h), 0.01 to 0.5 µM; in the test on HCC1395 cells (Homo sapiens, HCC1395, 144 h), over 5 µM.

As for `O=C(Nc1cccc2c1oc(=O)n2CC1CC1)c1ccc(NS(=O)(=O)CCO)cc1N1CCC2(CC1)CC2` [Example 18, N-(3-(cyclopropylmethyl)-2-oxo-2,3-dihydrobenzo[d]oxazol-7-yl)-4-((2-hydroxyethyl)sulfonamido)-2-(6-azaspiro[2.5]oct-6-yl)benzamide], the IC50 with OVCAR-3 cells (Homo sapiens, OVCAR-3, 240 h) is 0.05 to 0.5 µM; against KIF18A, at most 0.05 µM; with HCC1954 cells (Homo sapiens, HCC1954, 144 h) it was over 5 µM; in the test on HCC1395 cells (Homo sapiens, HCC1395, 144 h), over 5 µM.

Consider `O=C(Nc1ccnc2c1cc1n2CCOC1)c1ccc(NS(=O)(=O)CCO)cc1N1CCC2(CC1)CC2` [Example 303, N-(8,9-dihydro-6H-pyrido[3′,2′:4,5]pyrrolo[2,1-c][1,4]oxazin-4-yl)-4-((2-hydroxyethyl)sulfonamido)-2-(6-azaspiro[2.5]octan-6-yl)benzamide], for which the IC50 was 0.05 to 0.5 µM with OVCAR-3 cells (Homo sapiens, OVCAR-3, 240 h); at most 0.05 µM on KIF18A; 0.01 to 0.5 µM in the test on HCC1954 cells (Homo sapiens, HCC1954, 144 h); over 5 µM in the test on HCC1395 cells (Homo sapiens, HCC1395, 144 h).

For `CC1(C)Cc2nc3c(NC(=O)c4ccc(NS(=O)(=O)CCO)cc4N4CCC5(CC4)CC5)cccc3n2C1` [Example 490, N-(2,2-dimethyl-2,3-dihydro-1H-benzo[d]pyrrolo[1,2-a]imidazol-5-yl)-4-((2-hydroxyethyl)sulfonamido)-2-(6-azaspiro[2.5]oct-6-yl)benzamide], the IC50 in the test on OVCAR-3 cells (Homo sapiens, OVCAR-3, 240 h) fell in the range of 0.05 to 0.5 µM; on KIF18A, 0.05 to 0.5 µM; in the test on HCC1954 cells (Homo sapiens, HCC1954, 144 h), 0.01 to 0.5 µM.

As to `O=C(Nc1ccc(F)c2c1ccn2CC1CC1)c1ccc(NS(=O)(=O)CCO)cc1N1CCC2(CC1)CC2` [Example 56, N-(1-(cyclopropylmethyl)-7-fluoro-1H-indol-4-yl)-4-((2-hydroxyethyl)sulfonamido)-2-(6-azaspiro[2.5]octan-6-yl)benzamide], the half-inhibitory concentration (IC50) with OVCAR-3 cells (Homo sapiens, OVCAR-3, 240 h) was 0.05 to 0.5 µM; at KIF18A, 0.05 to 0.5 µM; in the test with HCC1954 cells (Homo sapiens, HCC1954, 144 h) it was 0.01 to 0.5 µM; in the test on HCC1395 cells (Homo sapiens, HCC1395, 144 h), over 5 µM.

As for `O=C(Nc1cccc2nn(CC3CC3)cc12)c1ccc(NS(=O)(=O)CCO)cc1N1CCC2(CC1)CC2` [Example 269], the IC50 in the test on OVCAR-3 cells is 0.05 to 0.5 µM; at KIF18A, at most 0.05 µM; in the test with HCC1954 cells, 0.01 to 0.5 µM; in the test with HCC1395 cells, over 5 µM.

On to `Nc1cc(NS(=O)(=O)CCO)cc(N2CCC3(CC2)CC3)c1C(=O)Nc1cccc2c1ccn2CC1CC1` [Example 41], for which the values for the concentration for half-maximal inhibition (IC50) in the test with OVCAR-3 cells, against KIF18A and with HCC1954 cells were 0.05 to 0.5 µM, 0.05 to 0.5 µM and 0.01 to 0.5 µM, respectively.

Regarding `COc1ccc(NC(=O)c2ccc(NS(=O)(=O)CCO)cc2N2CCC3(CC2)CC3)c2cc3n(c12)CCOC3` [Compound 404, 4-((2-hydroxyethyl)sulfonamido)-N-(6-methoxy-3,4-dihydro-1H-[1,4]oxazinyl[4,3-a]indol-9-yl)-2-(6-azaspiro[2.5]oct-6-yl)benzamide], the half-inhibitory concentration (IC50) with HT-29 cells is at most 0.2 µM; in the test on HCT116 cells, over 10 µM; in the test with OVCAR-3 cells (Homo sapiens, OVCAR-3, 240 h) it was at most 0.05 µM; in the test on A2780 cells, over 10 µM.

As to `O=C(Nc1cccc2c1cc1n2CCC1)c1ccc(NS(=O)(=O)CCO)cc1N1CCC2(CC1)CC2` [Example 129, N-(2,3-dihydro-1H-pyrrolo[1,2-a]indol-8-yl)-4-((2-hydroxyethyl)sulfonamide)-2-(6-azaspiro[2.5]octan-6-yl)benzamide], the figures for the half-maximal inhibitory concentration (IC50) against KIF18A, in the test on HCC1954 cells and in the test on HCC1395 cells were at most 0.05 µM, at most 0.01 µM and over 5 µM, respectively.
